This test deals with hNav1.7 (Homo sapiens, UniProt Q15858). As to the kind of experiment: cell-based. To be noted: ratio of PX tonic IC50 values; Table 11. Format: cell-based.
Chain of hNav1.7 (Q15858 whole entry): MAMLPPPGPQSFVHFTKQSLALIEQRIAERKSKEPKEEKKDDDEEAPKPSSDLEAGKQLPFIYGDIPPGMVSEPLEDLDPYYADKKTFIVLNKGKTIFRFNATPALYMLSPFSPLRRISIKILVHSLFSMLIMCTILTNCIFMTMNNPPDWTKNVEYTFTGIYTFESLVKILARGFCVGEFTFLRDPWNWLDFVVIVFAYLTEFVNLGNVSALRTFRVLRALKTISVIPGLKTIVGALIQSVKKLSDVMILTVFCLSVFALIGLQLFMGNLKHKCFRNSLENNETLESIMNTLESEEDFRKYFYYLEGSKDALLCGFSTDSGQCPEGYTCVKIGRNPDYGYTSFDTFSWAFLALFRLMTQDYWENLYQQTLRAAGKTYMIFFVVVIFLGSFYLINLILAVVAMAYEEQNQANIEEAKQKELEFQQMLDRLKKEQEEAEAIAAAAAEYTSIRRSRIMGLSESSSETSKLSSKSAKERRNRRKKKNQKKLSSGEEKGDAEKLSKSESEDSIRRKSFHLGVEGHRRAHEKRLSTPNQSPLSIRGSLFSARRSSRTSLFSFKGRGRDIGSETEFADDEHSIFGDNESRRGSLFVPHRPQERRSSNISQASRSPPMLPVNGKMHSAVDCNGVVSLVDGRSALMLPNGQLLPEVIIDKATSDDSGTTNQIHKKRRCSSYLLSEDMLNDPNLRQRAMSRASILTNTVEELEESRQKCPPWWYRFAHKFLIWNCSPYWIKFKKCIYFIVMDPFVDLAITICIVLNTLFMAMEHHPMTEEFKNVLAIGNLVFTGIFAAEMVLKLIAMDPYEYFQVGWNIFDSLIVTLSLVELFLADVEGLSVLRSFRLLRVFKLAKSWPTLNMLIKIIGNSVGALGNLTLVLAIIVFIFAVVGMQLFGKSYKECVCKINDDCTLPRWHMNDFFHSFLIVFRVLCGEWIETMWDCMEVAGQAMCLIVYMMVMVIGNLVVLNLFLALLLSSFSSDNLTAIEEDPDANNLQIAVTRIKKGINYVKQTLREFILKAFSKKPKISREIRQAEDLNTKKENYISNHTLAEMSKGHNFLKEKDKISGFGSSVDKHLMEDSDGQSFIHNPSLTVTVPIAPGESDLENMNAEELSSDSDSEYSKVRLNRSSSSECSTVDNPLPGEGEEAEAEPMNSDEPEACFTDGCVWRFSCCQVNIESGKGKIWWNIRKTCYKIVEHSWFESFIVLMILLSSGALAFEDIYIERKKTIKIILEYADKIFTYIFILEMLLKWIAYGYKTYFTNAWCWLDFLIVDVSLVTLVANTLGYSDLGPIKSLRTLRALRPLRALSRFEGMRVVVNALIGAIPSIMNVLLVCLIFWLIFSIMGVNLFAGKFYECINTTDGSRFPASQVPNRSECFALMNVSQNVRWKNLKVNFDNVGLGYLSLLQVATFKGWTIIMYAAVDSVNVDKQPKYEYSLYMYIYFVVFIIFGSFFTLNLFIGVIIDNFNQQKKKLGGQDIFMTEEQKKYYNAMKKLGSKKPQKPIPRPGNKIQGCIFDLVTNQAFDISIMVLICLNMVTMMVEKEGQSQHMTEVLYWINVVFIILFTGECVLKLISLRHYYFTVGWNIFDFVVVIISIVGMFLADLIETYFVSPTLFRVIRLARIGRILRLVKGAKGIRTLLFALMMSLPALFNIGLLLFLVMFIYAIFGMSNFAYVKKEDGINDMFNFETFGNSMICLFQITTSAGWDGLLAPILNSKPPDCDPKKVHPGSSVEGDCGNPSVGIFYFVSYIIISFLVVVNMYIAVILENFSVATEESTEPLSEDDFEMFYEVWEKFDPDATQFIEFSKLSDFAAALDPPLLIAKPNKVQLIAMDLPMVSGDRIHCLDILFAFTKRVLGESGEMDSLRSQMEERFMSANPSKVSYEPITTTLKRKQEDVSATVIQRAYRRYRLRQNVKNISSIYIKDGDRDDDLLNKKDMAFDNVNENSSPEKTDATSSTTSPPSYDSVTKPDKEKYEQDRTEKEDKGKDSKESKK
Consider `CCCC[C@H](NC(=O)[C@H](Cc1ccc(O)cc1)NC(=O)[C@H](CCCCN)NC(=O)[C@H](CCCNC(=N)N)NC(=O)[C@@H]1CSSC[C@@H]2NC(=O)[C@H](C)NC(=O)[C@H](CCCNC(=N)N)NC(=O)[C@H](CCCCN)NC(=O)[C@H](CO)NC(=O)[C@H](CC(=O)O)NC(=O)[C@@H]3CSSC[C@H](NC(=O)[C@H](CCC(=O)O)NC(=O)[C@H](CC(C)C)NC(=O)CNC(=O)[C@H](CCC(=O)O)NC(=O)[C@H](CSSC[C@H](NC(=O)[C@@H](N)Cc4ccc(O)cc4)C(=O)N[C@@H](CCC(N)=O)C(=O)N[C@@H](CCCCN)C(=O)N[C@@H](Cc4c[nH]c5ccccc45)C(=O)N[C@@H](CCSC)C(=O)N[C@@H](Cc4c[nH]c5ccccc45)C(=O)N[C@@H]([C@@H](C)O)C(=O)N3)NC2=O)C(=O)N[C@@H](CCCCN)C(=O)N[C@@H](CC(C)C)C(=O)N[C@@H](Cc2c[nH]c3ccccc23)C(=O)N1)C(N)=O` [compound 239], for which the Nav1.4/Nav1.7 is 127 and the Nav1.5/Nav1.7 is listed as greater than 1575.

On to `CC[C@H](C)[C@H](NC(=O)[C@H](Cc1ccc(O)cc1)NC(=O)[C@H](CCCCN)NC(=O)[C@H](CCCNC(=N)N)NC(=O)[C@@H]1CSSC[C@@H]2NC(=O)[C@H](C)NC(=O)[C@H](CCCNC(=N)N)NC(=O)[C@H](CCCCN)NC(=O)[C@H](CO)NC(=O)[C@H](CC(=O)O)NC(=O)[C@@H]3CSSC[C@H](NC(=O)[C@H](CCC(=O)O)NC(=O)[C@H](CC(C)C)NC(=O)CNC(=O)[C@H](CCC(=O)O)NC(=O)[C@H](CSSC[C@H](NC(=O)[C@@H](N)CCC(=O)O)C(=O)N[C@@H](CCC(N)=O)C(=O)N[C@@H](CCCCN)C(=O)N[C@@H](Cc4c[nH]c5ccccc45)C(=O)N[C@@H](CCSC)C(=O)N[C@@H](Cc4c[nH]c5ccccc45)C(=O)N[C@@H]([C@@H](C)O)C(=O)N3)NC2=O)C(=O)N[C@@H](CCCCN)C(=O)N[C@@H](CC(C)C)C(=O)N[C@@H](Cc2c[nH]c3ccccc23)C(=O)N1)C(N)=O` [compound 277], for which the Nav1.4/Nav1.7 was found to be 171 and the Nav1.5/Nav1.7 was greater than 1818.

As to `CCCC[C@@H]1NC(=O)[C@H](Cc2c[nH]c3ccccc23)NC(=O)[C@H](CCCCN)NC(=O)[C@H](CCC(N)=O)NC(=O)[C@@H](NC(=O)[C@H](Cc2ccc(O)cc2)NC(=O)[C@@H](N)CC(C)C)CSSC[C@@H]2NC(=O)[C@@H]3CSSC[C@@H](C(=O)N[C@@H](CCCNC(=N)N)C(=O)N[C@@H](CCCCN)C(=O)N[C@H](C(=O)N[C@H](C(N)=O)[C@@H](C)CC)[C@@H](C)CC)NC(=O)[C@H](Cc4c[nH]c5ccccc45)NC(=O)[C@H](CC(C)C)NC(=O)[C@H](CCCCN)NC(=O)[C@H](CSSC[C@H](NC(=O)[C@H]([C@@H](C)O)NC(=O)[C@H](Cc4c[nH]c5ccccc45)NC1=O)C(=O)N[C@@H](CC(=O)O)C(=O)N[C@@H](CO)C(=O)N[C@@H](CCCCN)C(=O)N[C@@H](CCCNC(=N)N)C(=O)N[C@@H](C)C(=O)N3)NC(=O)[C@H](CCCNC(=N)N)NC(=O)[C@H](CC(C)C)NC(=O)CNC(=O)[C@H](CCC(=O)O)NC2=O` [compound 361], the Nav1.4/Nav1.7 is 0 and the Nav1.5/Nav1.7 was 0.

As for `CCCC[C@@H]1NC(=O)[C@H](Cc2c[nH]c3ccccc23)NC(=O)[C@H](CCCCN)NC(=O)[C@H](CCC(N)=O)NC(=O)[C@@H](NC(=O)[C@H](Cc2ccc(O)cc2)NC(=O)[C@@H](N)CCC)CSSC[C@@H]2NC(=O)[C@@H]3CSSC[C@@H](C(=O)N[C@@H](CCCNC(=N)N)C(=O)N[C@@H](CCCCN)C(=O)N[C@H](C(=O)N[C@H](C(N)=O)[C@@H](C)CC)[C@@H](C)CC)NC(=O)[C@H](Cc4c[nH]c5ccccc45)NC(=O)[C@H](CC(C)C)NC(=O)[C@H](CCCCN)NC(=O)[C@H](CSSC[C@H](NC(=O)[C@H]([C@@H](C)O)NC(=O)[C@H](Cc4c[nH]c5ccccc45)NC1=O)C(=O)N[C@@H](CC(=O)O)C(=O)N[C@@H](CO)C(=O)N[C@@H](CCCCN)C(=O)N[C@@H](CCCNC(=N)N)C(=O)N[C@@H](C)C(=O)N3)NC(=O)[C@H](CCCNC(=N)N)NC(=O)[C@H](CC(C)C)NC(=O)CNC(=O)[C@H](CCC(=O)O)NC2=O` [compound 369], the Nav1.4/Nav1.7 was 552 and the Nav1.5/Nav1.7 turned out to be 23418.

On to `CCCC[C@@H]1NC(=O)[C@H](Cc2c[nH]c3ccccc23)NC(=O)[C@H](CCCCN)NC(=O)[C@H](CCC(N)=O)NC(=O)[C@@H](NC(=O)[C@H](Cc2ccc(O)cc2)NC(=O)[C@@H](N)CCCC)CSSC[C@@H]2NC(=O)[C@@H]3CSSC[C@@H](C(=O)N[C@@H](CCCNC(=N)N)C(=O)N[C@@H](CCCCN)C(=O)N[C@H](C(=O)N[C@H](C(N)=O)[C@@H](C)CC)[C@@H](C)CC)NC(=O)[C@H](Cc4c[nH]c5ccccc45)NC(=O)[C@H](CC(C)C)NC(=O)[C@H](CCCCN)NC(=O)[C@H](CSSC[C@H](NC(=O)[C@H]([C@@H](C)O)NC(=O)[C@H](Cc4c[nH]c5ccccc45)NC1=O)C(=O)N[C@@H](CC(=O)O)C(=O)N[C@@H](CO)C(=O)N[C@@H](CCCCN)C(=O)N[C@@H](CCCNC(=N)N)C(=O)N[C@@H](C)C(=O)N3)NC(=O)[C@H](CCCNC(=N)N)NC(=O)[C@H](CC(C)C)NC(=O)CNC(=O)[C@H](CCC(=O)O)NC2=O` [compound 370], for which the Nav1.4/Nav1.7 was 21 and the Nav1.5/Nav1.7 came out at 3729.

In the case of `CCCC[C@@H]1NC(=O)[C@H](Cc2c[nH]c3ccccc23)NC(=O)[C@H](CCCCN)NC(=O)[C@H](CCC(N)=O)NC(=O)[C@@H](NC(=O)[C@H](Cc2ccc(O)cc2)NC(=O)[C@@H](C)N)CSSC[C@@H]2NC(=O)[C@@H]3CSSC[C@@H](C(=O)N[C@@H](CCCNC(=N)N)C(=O)N[C@@H](CCCCN)C(=O)N[C@H](C(=O)N[C@H](C(N)=O)[C@@H](C)CC)[C@@H](C)CC)NC(=O)[C@H](Cc4c[nH]c5ccccc45)NC(=O)[C@H](CC(C)C)NC(=O)[C@H](CCCCN)NC(=O)[C@H](CSSC[C@H](NC(=O)[C@H]([C@@H](C)O)NC(=O)[C@H](Cc4c[nH]c5ccccc45)NC1=O)C(=O)N[C@@H](CC(=O)O)C(=O)N[C@@H](CO)C(=O)N[C@@H](CCCCN)C(=O)N[C@@H](CCCNC(=N)N)C(=O)N[C@@H](C)C(=O)N3)NC(=O)[C@H](CCCNC(=N)N)NC(=O)[C@H](CC(C)C)NC(=O)CNC(=O)[C@H](CCC(=O)O)NC2=O` [compound 372], the Nav1.4/Nav1.7 is given as 5 and the Nav1.5/Nav1.7 is on record as 764.

In the case of `CCCC[C@@H]1NC(=O)[C@H](Cc2c[nH]c3ccccc23)NC(=O)[C@H](CCCCN)NC(=O)[C@H](CCC(N)=O)NC(=O)[C@@H](NC(=O)[C@H](Cc2ccc(O)cc2)NC(=O)[C@H](N)CC(C)C)CSSC[C@@H]2NC(=O)[C@@H]3CSSC[C@@H](C(=O)N[C@@H](CCCNC(=N)N)C(=O)N[C@@H](CCCCN)C(=O)N[C@H](C(=O)N[C@H](C(N)=O)[C@@H](C)CC)[C@@H](C)CC)NC(=O)[C@H](Cc4c[nH]c5ccccc45)NC(=O)[C@H](CC(C)C)NC(=O)[C@H](CCCCN)NC(=O)[C@H](CSSC[C@H](NC(=O)[C@H]([C@@H](C)O)NC(=O)[C@H](Cc4c[nH]c5ccccc45)NC1=O)C(=O)N[C@@H](CC(=O)O)C(=O)N[C@@H](CO)C(=O)N[C@@H](CCCCN)C(=O)N[C@@H](CCCNC(=N)N)C(=O)N[C@@H](C)C(=O)N3)NC(=O)[C@H](CCCNC(=N)N)NC(=O)[C@H](CC(C)C)NC(=O)CNC(=O)[C@H](CCC(=O)O)NC2=O` [compound 373], the Nav1.4/Nav1.7 was determined as 190 and the Nav1.5/Nav1.7 amounted to 2704.
